≈ marks a conversion by molar mass, not a printed value.
System: Mycobacterium tuberculosis
Experiment: Antimicrobial activity against Mycobacterium tuberculosis ATCC […] by Almar blue assay
Format: functional

SMILES | MIC
O=C(/C=C/c1ccc2c(c1)OCO2)NNC(=O)c1ccccc1 | 25 µg/mL (≈ 80.6 µM)
O=C(/C=C/c1ccccc1)NNC(=O)c1ccccc1 | 50 µg/mL (≈ 188 µM)
O=C(/C=C/c1ccc(Cl)cc1Cl)NNC(=O)c1ccccc1 | > 100 µg/mL
O=C(/C=C/c1ccc([N+](=O)[O-])cc1)NNC(=O)c1ccccc1 | > 100 µg/mL
O=C(/C=C/c1ccc([N+](=O)[O-])cc1)NNC(=O)c1ccncc1 | 3.12 µg/mL (≈ 9.99 µM)
COc1ccc(/C=C/C(=O)NNC(=O)c2ccccc2)cc1 | 12.5 µg/mL (≈ 42.2 µM)
O=C(/C=C/c1ccc(Cl)cc1Cl)NNC(=O)c1ccncc1 | > 100 µg/mL
O=C(/C=C/c1ccc2c(c1)OCO2)NNC(=O)c1ccncc1 | 3.12 µg/mL (≈ 10 µM)
O=C(/C=C/c1ccccc1)NNC(=O)c1ccncc1 | 3.12 µg/mL (≈ 11.7 µM)
NNC(=O)c1ccncc1 [ISONIAZID] | 0.2 µg/mL (≈ 1.46 µM)
COc1ccc(/C=C/C(=O)NNC(=O)c2ccncc2)cc1 | 3.12 µg/mL (≈ 10.5 µM)

From ChEMBL document CHEMBL1141645, “Synthesis and antimycobacterial evaluation of new trans-cinnamic acid hydrazide derivatives” (2008)
